Two compounds from PMC2646632 (ACS chemical biology, 2008) can be followed below.

The assay concerns mouse SMN mRNA. As to the kind of experiment: Real-time PCR of endogenous SMN mRNA in NSC34 cells. The assay is classed as cell-based. The note with it: trichostatin A at 100 nM.

As for `Nc1nc(N)c2c(OCC3CCN(Cc4ccccc4F)CC3)cccc2n1` [D156844], the “Increase of SMN mRNA” value is on record as “two-fold”.
As for `CC(/C=C/C(=O)NO)=C\[C@@H](C)C(=O)c1ccc(N(C)C)cc1` [trichostatin A], the “Increase of SMN mRNA” value is “two-fold”.
